The target in one series is T1, PKA catalytic domain (Homo sapiens, UniProt P17612).
T1 construct: PKA catalytic domain from Upstate Biotechnology (#14-440); purchased Upstate Biotechnology 14-440
The series can be described thus: Measurement of PKA kinase inhibitory activity (IC50). It counts as biochemical. As for the experimental part:
A final concentration of 1 nM enzyme is used in a buffer that includes 20 mM MOPS pH 7.2, 40 μM ATP/γ^33P-ATP and 5 μM substrate. […] The reaction is allowed to proceed for 20 minutes before addition of excess orthophosphoric acid to quench activity. Unincorporated γ^33P-ATP is then separated from phosphorylated proteins on a Millipore MAPH filter plate. The plates are washed, scintillant is added and the plates are then subjected to counting on a Packard Topcount.

Series [1] deals with T2, PKB-PIF fusion protein (protein kinase B) (Homo sapiens, UniProt P31751).
T2 construct: PIF (fusion partner); made in house
T2 sequence (P31751 with tags, fused parts or gaps limits assumed): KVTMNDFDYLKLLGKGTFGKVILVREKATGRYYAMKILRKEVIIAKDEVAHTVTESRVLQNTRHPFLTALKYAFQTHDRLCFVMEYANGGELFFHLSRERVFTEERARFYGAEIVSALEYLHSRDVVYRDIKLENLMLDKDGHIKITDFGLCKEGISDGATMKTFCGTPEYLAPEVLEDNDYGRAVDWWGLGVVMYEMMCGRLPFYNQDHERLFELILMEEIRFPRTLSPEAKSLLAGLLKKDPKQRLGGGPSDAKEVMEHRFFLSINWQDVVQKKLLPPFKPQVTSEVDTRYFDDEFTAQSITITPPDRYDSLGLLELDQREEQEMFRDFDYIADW
The series can be described thus: Measurement of PKB kinase inhibitory activity (IC50). It counts as biochemical. Here is the method:
The reaction is allowed to proceed for 20 minutes before addition of excess orthophosphoric acid to quench activity. The reaction mixture is transferred to a phosphocellulose filter plate where the peptide binds and the unused ATP is washed away. After washing, scintillant is added and the incorporated activity measured by scintillation counting.

The conditions of series [2]: clinical studies; cited from earlier work.
The test system of another series is OVCAR-3 tumour cells. As to conditions: concentrations of 50 and 100 microM; cited from earlier work.
The test system of a further series is PKC. Conditions: cited from earlier work.
Another series relates to PKG. Conditions: cited from earlier work.
The conditions of series [3]: doses 10 times more than were needed for antitumour activity; cited from earlier work.
The subject of series [4] is Acute Promyelocytic Leukemia (APL) patients. As to conditions: cited from earlier work.
The subject of series [5] is P-glycoprotein-overexpressing subline of leukemic cell line CCRF-CEM. Conditions: read-out: IC50 against P-glycoprotein-overexpressing subline; cited from earlier work.
For series [6] the following is noted: antitumour agent; cited from earlier work.
Where [7] appears, read: 1 nM enzyme, 40 μM ATP/γ33P-ATP, 5 μM substrate, read-out: PKA IC50.
The mark [8] stands for this setting: 0.6 nM enzyme, 30 μM ATP/γ33P-ATP, 25 μM AKTide-2T substrate, read-out: PKB IC50.

Like-named read-outs stand apart in the source and are kept apart here. Some results are limits rather than exact numbers.

Here are results for 23 compounds from patent US8541461B2 (Astex Therapeutics Limited, priority 2005, dated 2013).

In general, IC50 refers to the concentration at which inhibition is half-maximal. For orientation: half-life means how long it takes for the measured level to halve.

Turning to `NCCOC(c1ccc(Cl)cc1)c1ccc(-c2cn[nH]c2)cc1` (stereo not drawn) [Example 49, 2-{(4-Chloro-phenyl)-[4-(1H-pyrazol-4-yl)-phenyl]-methoxy}-ethylamine], the IC50 (at PKA catalytic domain (setting [7]); in series [1] (setting [8])) was below 1000 nM each time. Take `CNCCC(c1ccc(-c2cn[nH]c2)cc1)c1ccc2ccccc2c1` (stereo not drawn) [Example 52, Methyl-{3-naphthalen-2-yl-3-[4-(1H-pyrazol-4-yl)-phenyl]-propyl}-amine]: the IC50 (at PKA catalytic domain (setting [7]); in [1] (setting [8])) was below 1000 nM each time. With `CNCCC(c1ccc(F)cc1)c1ccc(-c2cn[nH]c2)cc1` (stereo not drawn) [Example 54, {3-(4-Fluoro-phenyl)-3-[4-(1H-pyrazol-4-yl)-phenyl]-propyl}-methyl-amine], the IC50 (at PKA catalytic domain (setting [7]); in series [1] (setting [8])) was below 1000 nM in each case. For `CNCCC(Oc1cccc(Cl)c1)c1ccc(-c2cn[nH]c2)cc1` (stereo not drawn) [Example 59, {3-(3-Chloro-phenoxy)-3-[4-(1H-pyrazol-4-yl)-phenyl]-propyl}-methyl-amine], the IC50 (at PKA catalytic domain (setting [7]); in series [1] (setting [8])) was below 1000 nM each time.

With `Oc1ccc(C2(c3ccc(-c4cn[nH]c4)cc3)CCNCC2)cc1` [Example 63, 4-{4-[4-(1H-Pyrazol-4-yl)-phenyl]-piperidin-4-yl}-phenol], the IC50 (at PKA catalytic domain (setting [7]); in series [1] (setting [8])) was below 1000 nM each time. On to `CNCC(c1ccc(-c2cn[nH]c2)cc1)c1cccc(Cl)c1` (stereo not drawn) [Example 66, {2-(3-Chloro-phenyl)-2-[4-(1H-pyrazol-4-yl)-phenyl]-ethyl}-methyl-amine], for which the IC50 (at PKA catalytic domain (setting [7]); in series [1] (setting [8])) was below 1000 nM each time. As for `COCCOc1ccc(C2(c3ccc(-c4cn[nH]c4)cc3)CCNCC2)cc1` [Example 67, 4-[4-(2-Methoxy-ethoxy)-phenyl]-4-[4-(1H-pyrazol-4-yl)-phenyl]-piperidine], the IC50 is below 1000 nM at PKA catalytic domain (setting [7]) and below 5000 nM in [1] (setting [8]).

As to `OCCNCC(c1ccc(Cl)cc1)c1ccc(-c2cn[nH]c2)cc1` (stereo not drawn) [Example 73, 2-{2-(4-Chloro-phenyl)-2-[4-(1H-pyrazol-4-yl)-phenyl]-ethylamino}-ethanol], the IC50 (on PKA catalytic domain (setting [7]); in series [1] (setting [8])) was below 1000 nM each time. With `Cc1n[nH]cc1-c1ccc(C2(c3ccc(Cl)cc3)CCNCC2)cc1` [Example 78, 4-(4-Chloro-phenyl)-4-[4-(3-methyl-1H-pyrazol-4-yl)-phenyl]-piperidine], the IC50 (on PKA catalytic domain (setting [7]); in [1] (setting [8])) was below 1000 nM in each case.

As to `Clc1ccc(C2(c3ccc(-c4cn[nH]c4)cc3)CNCCO2)cc1` (stereo not drawn) [Example 79, 2-(4-Chloro-phenyl)-2-[4-(1H-pyrazol-4-yl)-phenyl]-morpholine], the IC50 (at PKA catalytic domain; in series [1]) was below 1000 nM throughout.

As to `N#Cc1ccc(C2(c3ccc(-c4cn[nH]c4)cc3)CCNCC2)cc1` [Example 81, 4-{4-[4-(1H-Pyrazol-4-yl)-phenyl]-piperidin-4-yl}-benzonitrile], the IC50 (at PKA catalytic domain (setting [7]); in [1] (setting [8])) was below 1000 nM in each case. Regarding `CNCC(C)(c1ccc(Cl)cc1)c1ccc(-c2cn[nH]c2)cc1` (stereo not drawn) [Example 82, {2-(4-Chloro-phenyl)-2-[4-(1H-pyrazol-4-yl)-phenyl]-propyl}-methyl-amine], the IC50 (at PKA catalytic domain (setting [7]); in [1] (setting [8])) was below 1000 nM throughout. On to `CNCC(O)(c1ccc(Cl)cc1)c1ccc(-c2cn[nH]c2)cc1` (stereo not drawn) [Example 83, 1-(4-Chloro-phenyl)-2-methylamino-1-[4-(1H-pyrazol-4-yl)-phenyl]-ethanol], for which the IC50 (on PKA catalytic domain (setting [7]); in [1] (setting [8])) was below 1000 nM throughout. Consider `NCC(O)(c1ccc(Cl)cc1)c1ccc(-c2cn[nH]c2)cc1` (stereo not drawn) [Example 84, 2-Amino-1-(4-chloro-phenyl)-1-[4-(1H-pyrazol-4-yl)-phenyl]-ethanol], for which the IC50 (on PKA catalytic domain (setting [7]); in series [1] (setting [8])) was below 1000 nM in each case. Consider `Clc1ccc(C2(c3ccc(-c4cn[nH]c4)cc3)CCNCC2)cc1Cl` [Example 85, 4-(3,4-Dichloro-phenyl)-4-[4-(1H-pyrazol-4-yl)-phenyl]-piperidine], for which the IC50 (at PKA catalytic domain (setting [7]); in series [1] (setting [8])) was below 1000 nM in each case.

`COc1ccc(C2(c3ccc(-c4cn[nH]c4)cc3)CCNCC2)cc1Cl` [Example 86, 4-(3-Chloro-4-methoxy-phenyl)-4-[4-(1H-pyrazol-4-yl)-phenyl]-piperidine]: the IC50 (on PKA catalytic domain (setting [7]); in [1] (setting [8])) was below 1000 nM in each case. `NCCC(c1ccc(-c2cn[nH]c2)cc1)c1cccc(Cl)c1` (stereo not drawn) [Example 90, 3-(3-Chloro-phenyl)-3-[4-(1H-pyrazol-4-yl)-phenyl]-propylamine]: the IC50 (on PKA catalytic domain (setting [7]); in series [1] (setting [8])) was below 1000 nM in each case. In the case of `CCCCCCCCCCCCCCCCCCOP(=O)([O-])OC1CC[N+](C)(C)CC1` [KRX-0401, Perifosine], in series [2], the half-life was around 100 h. As to `O=S(=O)(NCCNCC=C(c1ccccc1)c1ccccc1)c1cccc2cnccc12` [NL-71-101], in the series with OVCAR-3 tumour cells, the “apoptosis in OVCAR-3 tumour cells, in which PKB is amplified” value is listed as “induced apoptosis”. Also, the IC50 in the series on PKC is 104000 nM; with PKG it was 36000 nM. Take `CCOC(=O)c1ccc2[nH]c3c(OC)c4[nH]c5ccc(C(=O)OCC)cc5c4cc3c2c1` [SR-13668]: in series [3], the “adverse effects in mice” value was “no adverse effects”. For `CC1=C(/C=C/C(C)=C/C=C/C(C)=C/C(=O)O)C(C)(C)CCC1` [Tretinoin, all-trans retinoic acid], the “remissions in APL patients” value in [4] is on record as 64-100%.

Take `C/C1=C/C[C@@H](/C(C)=C/c2csc(C)n2)OC(=O)C[C@H](O)C(C)(C)C(=O)[C@H](C)[C@@H](O)[C@@H](C)CCC1` [desoxyepothilone B]: in [5], the IC50 was 17 nM.

Take calicheamicin: the “potency relative to adriamycin” value in [6] is reported as “over 1,000 times”.
